Results published in US8153687B2, “Gallium complexes with polyalcohols and methods of use” (priority 2009, dated 2012).

Test system: Pseudomonas aeruginosa
Assay: Topical treatment of a recalcitrant Pseudomonas aeruginosa infected diabetic foot ulcer (case)
Type: in vivo
Settings: severe diabetic foot ulcer with biofilm formation

Compound	response of the infection to treatment (topical treatment)	response of the infection to treatment (oral treatment)
gentamicin	does not respond	
Oc1cc(Cl)ccc1Oc1ccc(Cl)cc1Cl [triclosan]	does not respond	
O=C(O)c1cn(C2CC2)c2cc(N3CCNCC3)c(F)cc2c1=O [ciprofloxacin]	does not respond	does not respond
